Assay results: patent publication US20040121947A1, “Compounds which inhibit beta-secretase activity and methods of use thereof” (Oklahoma Medical Research Foundation, priority 2000, published 2004)
Read-outs that look alike come from different tables or passages of the source.

Target: T1, memapsin 2 (Homo sapiens, UniProt P56817)
T1 construct: pET-11 vector-derived residues 1-15 of promemapsin 2-T1 (N, cleaved yes); made in house; host or cells: E. coli
Assay: Inhibition of memapsin 2 proteolytic activity, fluorogenic substrate FS-2
Format: biochemical
Conditions: for Ki: memapsin 2; for Vi/Vo: ratio of initial cleavage velocities of FS-2 with/without compound, enzyme and inhibitor concentrations equal (e.g., about 80 nM, 100 nM)
Procedure: Ki is the inhibition equilibrium constant which indicates the ability of compounds to inhibit the β-secretase activity of memapsin 2 and memapsin 1. […] The K1 value is independent of the substrate, and converted from Ki apparent.
The Vi/Vo values depicted in Table 1 were determined at conditions under which the enzyme and inhibitor concentrations were equal (e.g., about 80 nM, 100 nM).
The relationship of Ki (independent of substrate concentration) to Kiapp is a function of substrate concentration in the assay and the Km for cleavage of the substrate by either memapsin 1 or memapsin 2 by the relationship:
The spontaneously activated memapsin 2 was employed in assays to assess the inhibition of memapsin 2 relative to memapsin 1 by compounds of the invention and in some crystallization studies.
An aliquot of the inhibitor of known concentration in DMSO was diluted into 1.8 ml 0.1 M NaOAc, pH 4.0. DMSO and added to a final concentration of 10% (v/v), and memapsin 2 (final concentration of 80 nM), followed by a 20 minute equilibration at 37° C. Compounds were evaluated for the ability to inhibit memapsin 1 and memapsin 2 at concentrations between about 10 nM and about 10 μm of inhibitor.

[1] = apparent Ki in presence of substrate FS-2, read-out: Ki app
[2] = independent of substrate, converted from Ki apparent, read-out: Ki

T1 sequence (P56817 41-454 limits assumed): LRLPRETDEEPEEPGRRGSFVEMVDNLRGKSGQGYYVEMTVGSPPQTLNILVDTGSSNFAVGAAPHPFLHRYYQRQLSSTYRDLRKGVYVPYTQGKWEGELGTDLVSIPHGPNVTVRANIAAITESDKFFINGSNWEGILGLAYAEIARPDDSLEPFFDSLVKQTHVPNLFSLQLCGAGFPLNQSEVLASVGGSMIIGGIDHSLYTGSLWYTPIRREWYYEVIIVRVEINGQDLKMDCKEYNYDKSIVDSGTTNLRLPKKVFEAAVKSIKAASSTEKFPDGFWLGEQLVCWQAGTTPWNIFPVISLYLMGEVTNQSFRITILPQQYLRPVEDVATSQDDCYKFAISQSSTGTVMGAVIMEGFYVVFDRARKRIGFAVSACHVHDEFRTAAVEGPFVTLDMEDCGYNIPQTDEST

Compound	Ki [1] [µM]	Ki [2] [µM]	Vi/Vo
CC(C)C[C@H](NC(=O)[C@H](C)C[C@H](O)[C@H](CC(C)C)NC(=O)[C@H](CCS(C)(=O)=O)NC(=O)[C@@H](NC(=O)OC(C)(C)C)C(C)C)C(=O)NC1Cc2ccccc2C1 [MMI-067]	0.0735	0.0459	–
CSCC[C@H](NC(=O)OCn1nc(C)cc1C)C(=O)N[C@@H](CC(C)C)[C@@H](O)C[C@@H](C)C(=O)N[C@H](C(=O)N1CCN(C)CC1)C(C)C [MMI-217]	1.07	0.67	–
CSCC[C@H](NC(=O)[C@@H](NC(=O)OC(C)(C)C)C(C)C)C(=O)N[C@@H](CC(C)C)[C@@H](O)C[C@@H](C)C(=O)N[C@@H](C(C)C)C1CCCO1 (stereo partly drawn) [MMI-154]	–	–	0.1
CSCC[C@H](NC(=O)O[C@H]1CCOC1)C(=O)N[C@@H](CC(C)C)[C@@H](O)C[C@@H](C)C(=O)N[C@@H](CC(C)C)C(=O)NC(C)C [MMI-227]	0.721	0.452	–
CSCC[C@H](NC(=O)c1cccc(C)c1C)C(=O)N[C@@H](CC(C)C)[C@@H](O)C[C@@H](C)C(=O)N[C@@H](CC(C)C)C(=O)NC(C)C [MMI-210]	0.899	0.562	–
CSCC[C@H](NC(=O)OCCn1nc(C)cc1C)C(=O)N[C@@H](CC(C)C)[C@@H](O)C[C@@H](C)C(=O)N[C@@H](CC(C)C)C(=O)NC(C)C [MMI-203]	0.361	0.225	–
CSCC[C@H](NC(=O)NCc1ccco1)C(=O)N[C@@H](CC(C)C)[C@@H](O)C[C@@H](C)C(=O)N[C@H](C(=O)NCc1ccccc1)C(C)C [MMI-115]	0.378	0.236	1.04
COCOCC[C@H](NC(=O)[C@H](CC(C)C)NC(=O)OC(C)(C)C)C(=O)N[C@@H](CC(C)C)[C@@H](O)C[C@@H](C)C(=O)N[C@@H](CC(C)C)C(=O)NC(C)C [MMI-190]	0.0291	0.0182	–

Results, then the compound that gave them:

Ki [1] [µM]	Ki [2] [µM]	Vi/Vo	Compound
8.52	5.32	–	CSCC[C@H](NC(=O)[C@@H](NC(=O)OC(C)(C)C)C(C)C)C(=O)N[C@@H](CC(C)C)[C@@H](O)C[C@@H](CC(F)(F)F)C(=O)N[C@H](C(=O)NCc1ccccc1)C(C)C [MMI-030]
0.126	0.0789	–	CC(C)C[C@H](NC(=O)[C@H](CC(N)=O)NC(=O)[C@@H](NC(=O)OC(C)(C)C)C(C)C)[C@@H](O)C[C@@H](C)C(=O)N[C@@H](C)C(=O)NCc1ccccc1 [MMI-005]
0.201	0.125	–	CC(C)C[C@H](NC(=O)OC(C)(C)C)C(=O)N[C@H](CCS(C)(=O)=O)C(=O)N[C@@H](CC(C)C)[C@@H](O)C[C@@H](C)C(=O)N[C@H](C(=O)NCc1ccccc1)C(C)C [MMI-105]
–	–	1.1	CSCC[C@H](NC(=O)[C@@H](NC(=O)OC(C)(C)C)C(C)C)C(=O)N[C@@H](CC(C)C)[C@@H](O)C[C@@H](C)C(=O)N[C@@H](C(C)C)C1CC(Cc2ccccc2)CCO1 (stereo partly drawn) [MMI-147]
0.0091	0.00568	–	CC(C)C[C@H](NC(=O)[C@H](CC(N)=O)NC(=O)[C@@H](NC(=O)OC(C)(C)C)C(C)C)[C@@H](O)C[C@@H](C)C(=O)N[C@H](C(=O)NCc1ccccc1)C(C)C [MMI-012]
0.00068	0.00043	0.06	CSCC[C@H](NC(=O)[C@H](CC(C)C)NC(=O)OC(C)(C)C)C(=O)N[C@@H](CC(C)C)[C@@H](O)C[C@@H](C)C(=O)N[C@H](C(=O)NCc1ccco1)C(C)C [MMI-161]
4.88	3.1	–	CC(C)C[C@H](NC(=O)[C@H](CC(N)=O)NC(=O)OC(C)(C)C)[C@@H](O)C[C@@H](C)C(=O)N[C@H](C(=O)NCc1ccccc1)C(C)C [MMI-011]
29.4	18.7	–	C=CC[C@H](C[C@H](O)[C@H](CC(C)C)NC(=O)[C@H](CC(N)=O)NC(=O)OC(C)(C)C)C(=O)N[C@H](C(=O)NCc1ccccc1)C(C)C [MMI-010]
–	274	–	CSCC[C@H](NC(=O)[C@H](C)NC(=O)[C@H](C)C[C@H](O)[C@H](CC(C)C)NC(=O)OC(C)(C)C)C(=O)NCc1ccccc1 [MMI-002]
